Legend:
[1] = molecular target: 72 kDa type IV collagenase (Homo sapiens, UniProt P08253)
Description: Inhibition of human recombinant MMP2 using succinylated gelatin as substrate incubated for 30 mins prior to substrate addition measured after 60 mins

Interstitial collagenase = molecular target: T1, Interstitial collagenase (Homo sapiens, UniProt P03956)
T1 sequence (P03956 whole entry): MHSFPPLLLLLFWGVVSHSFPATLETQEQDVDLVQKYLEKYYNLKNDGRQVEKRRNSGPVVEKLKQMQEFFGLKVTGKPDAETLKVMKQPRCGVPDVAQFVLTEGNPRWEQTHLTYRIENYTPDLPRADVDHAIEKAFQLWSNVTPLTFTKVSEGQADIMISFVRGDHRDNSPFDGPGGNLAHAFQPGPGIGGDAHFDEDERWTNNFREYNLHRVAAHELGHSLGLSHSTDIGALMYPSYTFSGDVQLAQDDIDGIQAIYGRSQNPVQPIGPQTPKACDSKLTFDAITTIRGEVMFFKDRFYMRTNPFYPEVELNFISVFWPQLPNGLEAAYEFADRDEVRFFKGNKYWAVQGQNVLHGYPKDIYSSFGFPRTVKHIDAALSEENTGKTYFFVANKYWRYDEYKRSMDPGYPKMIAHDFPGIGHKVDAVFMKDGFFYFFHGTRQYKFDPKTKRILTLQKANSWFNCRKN
Description: Inhibition of human recombinant MMP1 using succinylated gelatin as substrate incubated for 30 mins prior to substrate addition measured after 60 mins

72 kDa type IV collagenase, sequence (P08253 whole entry): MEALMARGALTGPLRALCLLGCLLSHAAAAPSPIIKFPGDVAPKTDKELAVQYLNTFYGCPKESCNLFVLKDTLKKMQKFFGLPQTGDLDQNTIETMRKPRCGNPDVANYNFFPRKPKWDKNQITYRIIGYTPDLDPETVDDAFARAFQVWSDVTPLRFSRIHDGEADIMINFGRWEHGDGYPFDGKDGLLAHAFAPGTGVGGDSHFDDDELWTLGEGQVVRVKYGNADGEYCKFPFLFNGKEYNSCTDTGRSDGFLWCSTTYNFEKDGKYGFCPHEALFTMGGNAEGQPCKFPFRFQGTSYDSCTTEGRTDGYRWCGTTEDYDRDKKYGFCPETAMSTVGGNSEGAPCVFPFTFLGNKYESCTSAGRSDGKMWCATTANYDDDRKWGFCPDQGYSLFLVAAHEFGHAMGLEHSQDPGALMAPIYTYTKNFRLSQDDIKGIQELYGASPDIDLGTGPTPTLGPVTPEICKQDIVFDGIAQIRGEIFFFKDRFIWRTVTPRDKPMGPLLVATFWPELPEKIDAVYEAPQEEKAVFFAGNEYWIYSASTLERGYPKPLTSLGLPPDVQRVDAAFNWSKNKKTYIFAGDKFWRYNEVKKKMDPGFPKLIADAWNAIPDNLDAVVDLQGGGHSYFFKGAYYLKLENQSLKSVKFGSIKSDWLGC

IC50 [1] [nM] | IC50 (Interstitial collagenase) [µM] | Structure (SMILES)
1870 | 4.21 | O=C(/C=C/c1cccc(O)c1)Nc1cccc(F)c1
9.11 | 3.5 | O=C(/C=C/c1cccc(O)c1)Nc1ccc(Cl)cc1
3.28 | 5.83 | O=C(/C=C/c1ccc(O)c(O)c1)Nc1ccc(O)cc1
4.09 | 5.29 | COc1ccc(NC(=O)/C=C/c2ccc(O)cc2)cc1
8.46 | 3.6 | O=C(/C=C/c1cccc(O)c1)NCCc1ccccc1
5.46 | 4.67 | Cc1ccc(NC(=O)/C=C/c2ccccc2)cc1 [N-P-TOLYLCINNAMAMIDE]
1760 | 5.22 | COc1cccc(NC(=O)/C=C/c2ccc(O)cc2)c1
8.41 | 3.4 | O=C(/C=C/c1cccc(O)c1)Nc1ccccc1 [3-HYDROXY-CINNAMANILIDE]
9.09 | 4.12 | O=C(/C=C/c1cccc(O)c1)Nc1ccccc1F
1590 | 5.77 | O=C(/C=C/c1ccc(O)c(O)c1)Nc1cccc(O)c1
8.2 | 3.3 | O=C(/C=C/c1ccc(O)c(O)c1)NCCc1ccccc1 [CAFFEIC ACID PHENETHYL AMIDE]
1870 | 3.81 | O=C(/C=C/c1ccc(O)c(O)c1)Nc1cccc(Cl)c1
8.37 | 3.22 | O=C(/C=C/c1ccc(O)cc1)NCCc1ccccc1
8.59 | 4.39 | O=C(/C=C/c1cccc(O)c1)Nc1ccc(F)cc1
3.42 | 5.32 | COc1ccc(NC(=O)/C=C/c2ccc(O)c(O)c2)cc1
8.44 | 3.6 | O=C(/C=C/c1cccc(O)c1)NCc1ccccc1
1680 | 5.29 | COc1cccc(NC(=O)/C=C/c2ccc(O)c(O)c2)c1
5.27 | 5.25 | COc1ccccc1NC(=O)/C=C/c1ccc(O)c(O)c1
5.28 | 5.4 | O=C(/C=C/c1ccccc1)Nc1ccc(O)cc1
3.55 | 4.83 | Cc1ccc(NC(=O)/C=C/c2ccc(O)c(O)c2)cc1
1950 | 4.59 | Cc1cccc(NC(=O)/C=C/c2ccccc2)c1 [N-M-TOLYLCINNAMAMIDE]

IC50 [1] [nM] | IC50 (Interstitial collagenase) [µM] | Structure (SMILES)
6.41 | 4.52 | Cc1ccccc1NC(=O)/C=C/c1ccccc1 [N-O-TOLYLCINNAMAMIDE]
1820 | 4.3 | O=C(/C=C/c1ccc(O)c(O)c1)Nc1cccc(F)c1
9.11 | 3.71 | O=C(/C=C/c1ccc(O)c(O)c1)Nc1ccccc1Cl
9.41 | 3.26 | O=C(/C=C/c1cccc(O)c1)Nc1ccccc1Cl
9.01 | 4.23 | O=C(/C=C/c1ccc(O)cc1)Nc1ccccc1F
5.09 | 5.62 | O=C(/C=C/c1ccc(O)c(O)c1)Nc1ccccc1O
5.57 | 5.21 | O=C(/C=C/c1cccc(O)c1)Nc1ccccc1O
8.32 | 3.14 | O=C(/C=C/c1ccc(O)cc1)NCc1ccccc1
8.92 | 4.25 | O=C(/C=C/c1ccc(O)c(O)c1)Nc1ccccc1F
1580 | 4.43 | O=C(/C=C/c1ccc(O)cc1)Nc1cccc(F)c1
8.05 | 3.24 | O=C(/C=C/c1ccc(O)c(O)c1)Nc1ccccc1
8.31 | 4.37 | O=C(/C=C/c1ccc(O)c(O)c1)Nc1ccc(F)cc1
9.13 | 3.25 | O=C(/C=C/c1ccccc1)NCCc1ccccc1
5.97 | 4.71 | Cc1ccccc1NC(=O)/C=C/c1ccc(O)c(O)c1
1750 | 4.88 | Cc1cccc(NC(=O)/C=C/c2ccc(O)cc2)c1
5.73 | 4.74 | Cc1ccccc1NC(=O)/C=C/c1cccc(O)c1
1670 | 5.16 | COc1cccc(NC(=O)/C=C/c2cccc(O)c2)c1
1720 | 4.8 | Cc1cccc(NC(=O)/C=C/c2ccc(O)c(O)c2)c1
8.22 | 3.25 | O=C(/C=C/c1ccc(O)c(O)c1)NCc1ccccc1
8.95 | 3.96 | O=C(/C=C/c1ccc(O)c(O)c1)Nc1ccc(Cl)cc1

Structure (SMILES) | IC50 [1] [nM] | IC50 (Interstitial collagenase) [µM]
O=C(O)/C=C/c1ccc(O)c(O)c1 [CAFFEIC ACID] | 24.3 | 0.239
